Source: patent publication US20160060324A1, “Methods and Compositions for Treating Bleeding Disorders” (THE SCRIPPS RESEARCH INSTITUTE, priority 2013, published 2016)

Legend:
[1] = biological target: T1, murine CD22 (Mus musculus, UniProt P35329); conditions: higher affinity than natural ligand; cited from earlier work
T1 sequence (P35329 22-868): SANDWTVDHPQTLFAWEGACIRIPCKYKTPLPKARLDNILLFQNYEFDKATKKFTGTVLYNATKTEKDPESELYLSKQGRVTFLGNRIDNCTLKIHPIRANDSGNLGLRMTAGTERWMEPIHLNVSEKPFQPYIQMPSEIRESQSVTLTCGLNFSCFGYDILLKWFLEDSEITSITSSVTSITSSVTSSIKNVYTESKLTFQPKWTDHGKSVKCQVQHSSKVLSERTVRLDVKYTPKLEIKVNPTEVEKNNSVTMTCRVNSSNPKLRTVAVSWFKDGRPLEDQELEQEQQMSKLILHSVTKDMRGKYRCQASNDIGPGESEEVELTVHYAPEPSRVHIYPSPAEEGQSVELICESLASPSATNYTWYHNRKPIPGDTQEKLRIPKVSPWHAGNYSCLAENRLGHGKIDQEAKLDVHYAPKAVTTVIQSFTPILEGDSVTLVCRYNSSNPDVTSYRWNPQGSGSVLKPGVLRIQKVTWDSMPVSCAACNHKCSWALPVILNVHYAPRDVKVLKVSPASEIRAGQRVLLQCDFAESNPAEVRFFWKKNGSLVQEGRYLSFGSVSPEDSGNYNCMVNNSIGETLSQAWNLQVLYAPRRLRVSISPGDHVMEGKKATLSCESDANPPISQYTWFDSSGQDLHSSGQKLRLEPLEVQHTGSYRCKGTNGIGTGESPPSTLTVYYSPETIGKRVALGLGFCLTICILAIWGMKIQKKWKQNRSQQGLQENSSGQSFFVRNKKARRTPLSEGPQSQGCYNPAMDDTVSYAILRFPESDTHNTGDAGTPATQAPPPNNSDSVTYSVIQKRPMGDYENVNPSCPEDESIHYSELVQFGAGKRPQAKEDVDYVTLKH

[2] = system: C57BL/6J mice; assay: Tolerance induction to T-dependent antigen HEL in mice (anti-HEL titers by ELISA); assay type: in vivo, mouse; conditions: for antibody suppression with varying amounts of ligand on HEL STALs: end of 44-day experiment, two challenges with immunogenic liposomes on days 15 and 30
Experimental: Whole blood (50 μL) was collected from mice via a retro-orbital bleed to obtain the serum after centrifugation (17,000 g, 1 min). Serum was aliquoted and stored at −20° C. Liposomes were delivered via the lateral tail vein in a volume of 200 μL. For studies involving a challenge with soluble (non-liposomal) antigen, mice were injected with 200 μg of HEL dissolved in HBSS and delivered intraperitoneally.
Maxisorp plates were coated (0/N, 4° C.) with the relevant protein (50 μL/well, 10 μg/mL) in PBS. NP4-7-BSA in PBS (Biosearch Technologies) was used to look for anti-NP antibodies. The following day, plates were washed twice in TBS-T (0.1% Tween 20) and blocked (1 hr, RT) with TBS-T containing 1% BSA. Serum was initially diluted between 20-10,000-fold and diluted in 2-3 fold serial dilutions eight times on the ELISA plate. Plates were incubated (1 hr, 37° C.) with serum (50 μL/well), washed four times, and incubated (1 hr, 37° C.) with the appropriate HRP-conjugated secondary antibodies (1:2000, Santa Cruz Biotechnologies). Following five washes, plates were developed (RT, 15 min) in 75 μL/well of TMB substrate (Thermo Fisher) and quenched with 75 μL/well of 2N H2SO4. Absorbance was measured at 450 nm and the endpoint titer was calculated as the dilution of serum that produced an absorbance 2-fold above background.
All liposomes were composed of a 60:35:5 molar ratio of distearoyl phosphatidylcholine (DSPC; Avanti Polar Lipids), cholesterol (Sigma), and pegylated lipids. The total mol % of pegylated lipids was always kept at 5%; made up of the appropriate combination of polyethyleneglycol(PEG2000)-distearoyl phosphoethanolamine (PEG-DSPE; Avanti Polar Lipids), ^BPANeuGc-PEG2000-DSPE, ^BPCNeuAc-PEG2000-DSPE, NP-PEG2000-DSPE or Protein-PEG2000-DSPE. […] The diameter of the liposomes were measured on a zetasizer (Malvern) and were consistently in the range of 100-130±30 nm. […]

[3] = biological target: T2, Siglec-G (Mus musculus, UniProt Q80ZE3); conditions: cited from earlier work
T2 sequence (Q80ZE3 18-688): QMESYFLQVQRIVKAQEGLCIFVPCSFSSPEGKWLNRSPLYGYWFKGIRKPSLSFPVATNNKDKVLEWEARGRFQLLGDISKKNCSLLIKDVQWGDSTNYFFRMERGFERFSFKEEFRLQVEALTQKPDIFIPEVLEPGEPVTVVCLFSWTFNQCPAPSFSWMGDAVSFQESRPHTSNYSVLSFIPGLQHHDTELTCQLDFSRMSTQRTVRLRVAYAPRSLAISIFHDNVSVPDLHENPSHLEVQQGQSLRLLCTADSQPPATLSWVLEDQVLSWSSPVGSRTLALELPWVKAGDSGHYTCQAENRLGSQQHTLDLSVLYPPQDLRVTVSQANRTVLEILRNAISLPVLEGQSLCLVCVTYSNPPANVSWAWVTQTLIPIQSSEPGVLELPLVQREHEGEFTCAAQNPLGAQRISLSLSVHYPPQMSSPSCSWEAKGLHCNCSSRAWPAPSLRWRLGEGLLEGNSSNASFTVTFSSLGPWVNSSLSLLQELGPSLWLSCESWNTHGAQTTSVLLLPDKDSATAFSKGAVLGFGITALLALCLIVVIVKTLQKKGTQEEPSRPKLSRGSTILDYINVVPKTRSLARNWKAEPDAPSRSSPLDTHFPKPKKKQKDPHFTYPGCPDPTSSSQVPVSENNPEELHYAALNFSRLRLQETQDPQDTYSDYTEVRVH

9-N-biphenylacetyl-NeuGcα2-6Galβ1-4GlcNAc [^BPANeuGc]
affinity for murine CD22 relative to its natural ligand (NeuGcα2-6Galβ1-4GlcNAc) [1]: 200 fold | difference in EC50 between the two ligands (^BPANeuGc vs NeuGc) on HEL STALs ([2]; antibody suppression titration, FIG. 1E): two orders of magnitude difference | antibody suppression with varying amounts of ligand on HEL STALs [2]: dose-dependent effect on antibody suppression | cross-reactivity with Siglec-G [3]: only a small degree of cross-reactivity

CC(=O)NC1C(O)OC(CO)C(OC2OC(COC3(C(=O)O)CC(O)C(NC(=O)CO)C(C(O)C(O)CO)O3)C(O)C(O)C2O)C1O (centres unmarked) [NeuGc, NeuGcα2-6Galβ1-4GlcNAc]
antibody suppression with varying amounts of ligand on HEL STALs [2]: dose-dependent effect on antibody suppression
